Tests used:
Format in all cases: cell-based
[1] = test system: Lu-65 human lung cancer cell line; test: Cell viability assay (MTT), Lu-65 lung cancer cells; conditions: human lung cancer cell (Lu65), 48 hr treatment, FIG. 4A
Experimental: (§1) FIG. 4 is a graph showing that diDCP-LA-PI and diDCP-LA-PIe induce cell death of (A) human lung cancer cell (Lu65), (B) gastric cancer cell (MKN28), (C) breast cancer cell (MCF-7) in a concentration-dependent manner. The cells were treated with a given concentration of diDCP-LA-PI or diDCP-LA-PIe for 48 hr, and subjected to MTT assay.
Lu-65 human lung cancer cell line was purchased from Health Science Research Resources Bank (Osaka, Japan), and cultured in RPMI-1640 medium.
(§2) In all cell cultures, the cells were incubated in a medium added with 10% (v/v) heat-inactivated bovine serum, penicillin (final concentration, 100 U/ml) and streptomycin (final concentration, 0.1 mg/ml) in a humid environment under 5% CO2 and 95% air at 37° C.
(§3) The cell viability was evaluated by an established method using 3-(4,5-dimethyl-2-thiazolyl)-2,5-diphenyl-2H-tetrazolium bromide (MTT).

[2] = test system: MCF-7 human breast cancer cell line; test: Cell viability assay (MTT), MCF-7 breast cancer cells; conditions: breast cancer cell (MCF-7), 48 hr treatment, FIG. 4C
Experimental: as §1
MCF-7 human breast cancer cell line was obtained from RIKEN cell bank (Ibaraki, Japan) and cultured in Dulbecco's modified Eagle's medium (DMEM).
as §2, §3

[3] = test system: human malignant pleural mesothelioma cell lines NCI-H28, NCI-H2052, NCI-H2452, MSTO-211H; test: Cell viability assay (MTT), human malignant pleural mesothelioma cell lines; conditions: 48 hr treatment; for cell death induction (MTT intensity relative to cells free of drug treatment): FIG. 2 / FIG. 3
Experimental: FIG. 2 is a graph showing that diDCP-LA-PI and diDCP-LA-PIe induce cell death of human malignant pleural mesothelioma in a concentration-dependent manner. The cells were treated with a given concentration of diDCP-LA-PI or diDCP-LA-PIe for 48 hr, and subjected to MTT assay.
FIG. 3 is a graph showing that DO-PI and DP-PI induce the same level of cell death of human malignant pleural mesothelioma in a concentration-dependent manner. The cells were treated with a given concentration of DO-PI or DP-PI for 48 hr, and subjected to MTT assay.
NCI-H28, NCI-H2052, NCI-H2452, and MSTO-211H which are cell lines of human malignant pleural mesothelioma were used.
These cells were purchased from American Type Culture Collection (Manassas, Va., USA). The cells were cultured in Roswell Park Memorial Institute (RPMI)-1640 medium added with 0.003% (w/v) L-glutamine.
as §2, §3

[4] = test system: MKN28 human gastric cancer cell line; test: Cell viability assay (MTT), MKN28 gastric cancer cells; conditions: 48 hr treatment, FIG. 4B
Experimental: as §1
MKN28 human gastric cancer cell line was provided by Dr. Tatematsu (Nagoya University, Japan), and cultured in RPMI-1640 medium.
as §2, §3

In the case of “1,2-O-bis-[8-{2-(2-pentyl-cyclopropylmethyl)-cyclopropyl}-octanoyl]-sn-glycerol-3-phosphatidyl-D-inositol [diDCP-LA-PI]”, the “cell death induction (MTT intensity relative to cells free of drug treatment)” value [1] is reported as “induce cell death of human lung cancer, gastric cancer and breast cancer in a concentration dependent manner”, the “cell death induction (MTT intensity relative to cells free of drug treatment)” value [2] is reported as “induce cell death of human lung cancer, gastric cancer and breast cancer in a concentration dependent manner” and the “cell death induction (MTT intensity relative to cells free of drug treatment)” value [3] is reported as “induce cell death of human malignant pleural mesothelioma cells in a concentration dependent manner”. For the same compound, the “cell death induction (MTT intensity relative to cells free of drug treatment)” value [4] was “induce cell death of human lung cancer, gastric cancer and breast cancer in a concentration dependent manner”.

For “1,2-O-bis-[8-{2-(2-pentyl-cyclopropylmethyl)-cyclopropyl}-octanoyl]-sn-glycerol-3-phosphatidyl-L-1-inositol [diDCP-LA-PIe]”, the “cell death induction (MTT intensity relative to cells free of drug treatment)” value [1] was “induce cell death of human lung cancer, gastric cancer and breast cancer in a concentration dependent manner”, the “effectiveness of cell death induction compared with diDCP-LA-PI” value (“effectiveness … compared with diDCP-LA-PI” for short) [1] was “more effective” and the “cell death induction (MTT intensity relative to cells free of drug treatment)” value [2] was “induce cell death of human lung cancer, gastric cancer and breast cancer in a concentration dependent manner”. For the same compound, the “effectiveness … compared with diDCP-LA-PI” value [2] was “more effective”, the “cell death induction (MTT intensity relative to cells free of drug treatment)” value [3] was “induce cell death of human malignant pleural mesothelioma cells in a concentration dependent manner” and the “effectiveness … compared with diDCP-LA-PI” value ([3]; human malignant pleural mesothelioma cells, FIG. 2) was “more effective”. The “cell death induction (MTT intensity relative to cells free of drug treatment)” value [4] was “induce cell death of human lung cancer, gastric cancer and breast cancer in a concentration dependent manner” and the “effectiveness … compared with diDCP-LA-PI” value [4] was “more effective”.

In the case of `CCCCCCCC/C=C\CCCCCCCC(=O)OC[C@H](COP(=O)(O)OC1C(O)C(O)C(O)[C@@H](O)C1O)OC(=O)CCCCCCC/C=C\CCCCCCCC` (some centres unmarked) [DO-PI, 1,2-dioleoyl-sn-glycerol-3-phospho-(1′-myo-inositol)], the “cell death induction (MTT intensity relative to cells free of drug treatment)” value [3] is reported as “induce the same level of cell death of human malignant pleural mesothelioma cells in a concentration dependent manner”.

For `CCCCCCCCCCCCCCCC(=O)OC[C@H](COP(=O)(O)O[C@@H]1[C@H](O)[C@H](O)[C@@H](O)[C@H](O)[C@H]1O)OC(=O)CCCCCCCCCCCCCCC` [DP-PI, 1,2-dipalmitoyl-sn-glycerol-3-phospho-(1′-myo-inositol)], the “cell death induction (MTT intensity relative to cells free of drug treatment)” value [3] was “induce the same level of cell death of human malignant pleural mesothelioma cells in a concentration dependent manner”.

Source: patent US20160120888A1, “ANTICANCER DRUG” (KTN BIOTEC, INC., priority 2013, published 2016)
